# Data taken from patent US20260305610A1, “TRIAZOLE COMPOUND, AND PREPARATION METHOD THEREFOR, HERBICIDAL COMPOSITION AND USE THEREOF” (QINGDAO KINGAGROOT CHEMICAL COMPOUND CO., LTD., priority 2023, published 2026).
# Tested on: weeds
# Assay: Activity assay of compositions: soil sealing treatment (S), fresh weight inhibition and combined effect (Gowing method)
# Format: in vivo
# Details: 21 d
# Experimental: The required active ingredient B was purchased from a reagent company or a technical material manufacturer or synthesized by a conventional method. The technical materials were all dissolved with acetone solvents and diluted with aqueous solution of 0.1% Tween-80 emulsifier, which should be used immediately after dilution.
# • Weeds were cultivated in a controllable sunlight greenhouse at 20 to 30° C., in natural light, and with relative humidity of 57% to 72%. […] The test soil was quantitatively filled to ¾ of the pot, and then watered from the bottom of the pot to completely wet the soil to saturation. The test weed seeds were accelerated to just germinate, and then evenly and quantitatively broadcasted on the soil surface, covered with 0.5-1 cm soil according to the sizes of the seeds, and ready for use 72 hours after sowing.
# Each treatment was repeated 4 times. Four pots with 20 weed seeds sowed per pot were treated each time.
# The well-sowed test materials were evenly placed on a platform with an area of 0.5 m^2, and foliage spraying was carried out by the 3WP-2000-type walking spray tower at a dosage of 450 kg/ha and a spray pressure of 0.3 MPa. After all the solution was sprayed, the air valve was closed. And 30 seconds later, the door of the spray tower was opened, and the nutritional bowl was taken out. Next, the air valve was opened, and the spray tube was cleaned by spraying 50 ml of water.
# A method for investigating absolute numbers was employed. Whole seedlings of survival weeds were cut off along the soil surface with a blade, and the fresh weight of the weeds was weighed using an analytical balance. For dead weeds, the fresh weight thereof was zero.
# The investigation was performed 21 days after the treatment for once in total.
# The theoretical fresh weight inhibition rate of a mixed combination of each treatment was calculated by the Gowing method (E0=X+Y−X*Y/100). Then compared with the measured inhibition rate (E), the type of the combined effect of the combination of the two on weeds was evaluated, which was a synergistic effect when E−E0>10%; an antagonistic effect when E−E0<−10%; an additional effect when −10%≤E−E0≤10%. An optimal ratio was determined according to factors such as the actual control effects, characteristics of herbicides, balance of the formulation, etc. In the formula, X represents the fresh weight inhibition rate of the active ingredient A in a dosage of P; Y represents the fresh weight inhibition rate of the active ingredient B in a dosage of Q. The statistical results are shown in Table 4.
# [1] = Amaranthus retroflexus, B 150 g a.i./ha
# [2] = Amaranthus retroflexus, B 300 g a.i./ha
# [3] = Eclipta prostrata, B 150 g a.i./ha
# [4] = Eclipta prostrata, B 300 g a.i./ha
smiles,measurement,setting,value
Cc1nn(-c2cc(NS(C)(=O)=O)c(Cl)cc2Cl)c(=O)n1C(F)F [Sulfentrazone],Control effect of B applied alone in a corresponding dose (%),"Solanum nigrum, B 15 g a.i./ha",48.5%
same,Control effect of B applied alone in a corresponding dose (%),"Solanum nigrum, B 30 g a.i./ha",60.0%
CCc1cccc(C)c1N(C(=O)CCl)[C@@H](C)COC [S-metolachlor],Control effect of B applied alone in a corresponding dose (%),[1],41.4%
same,Control effect of B applied alone in a corresponding dose (%),[2],64.6%
CC(C)c1ccc(NC(=O)N(C)C)cc1 [Isoproturon],Control effect of B applied alone in a corresponding dose (%),"Lolium temulentum, B 375 g a.i./ha",37.1%
same,Control effect of B applied alone in a corresponding dose (%),"Lolium temulentum, B 750 g a.i./ha",58.2%
CCC(CC)Nc1c([N+](=O)[O-])cc(C)c(C)c1[N+](=O)[O-] [Pendimethalin],Control effect of B applied alone in a corresponding dose (%),[3],45.5%
same,Control effect of B applied alone in a corresponding dose (%),[4],63.2%
C#CCN1C(=O)C(F)(F)Oc2cc(F)c(-n3c(=O)n(C)c(=S)n(C)c3=O)cc21 [Trifludimoxazin],Control effect of B applied alone in a corresponding dose (%),"Silene conoidea, B 30 g a.i./ha",44.4%
same,Control effect of B applied alone in a corresponding dose (%),"Silene conoidea, B 60 g a.i./ha",66.7%
CCCN(CCC)c1c([N+](=O)[O-])cc(C(F)(F)F)cc1[N+](=O)[O-] [Trifluralin],Control effect of B applied alone in a corresponding dose (%),[3],45.7%
same,Control effect of B applied alone in a corresponding dose (%),[4],67.5%
CCNc1nc(Cl)nc(NC(C)(C)C)n1 [Terbuthylazine],Control effect of B applied alone in a corresponding dose (%),"Chloris virgata, B 225 g a.i./ha",35.5%
same,Control effect of B applied alone in a corresponding dose (%),"Chloris virgata, B 450 g a.i./ha",52.7%
CCC[S@@+]([O-])c1c(C(F)(F)F)ccc(C(=O)Nc2nnc(C)o2)c1F,Control effect of B applied alone in a corresponding dose (%),"Ammannia arenaria, B 15 g a.i./ha",26.1%
same,Control effect of B applied alone in a corresponding dose (%),"Ammannia arenaria, B 30 g a.i./ha",43.8%
CCOCN(C(=O)CCl)c1c(C)cccc1CC [Acetochlor],Control effect of B applied alone in a corresponding dose (%),[1],40.2%
same,Control effect of B applied alone in a corresponding dose (%),[2],58.3%
C#CCN(C)c1c(C#N)cnn1-c1nn2c(c1Cl)CCCC2 [Pyraclonil],Control effect of B applied alone in a corresponding dose (%),"Eclipta prostrata, B 37.5 g a.i./ha",47.0%
same,Control effect of B applied alone in a corresponding dose (%),"Eclipta prostrata, B 75 g a.i./ha",65.8%
COc1nc(OC)nc(C(=O)c2cccc(F)c2N(C)S(=O)(=O)C(F)F)n1 [Triafamone],Control effect of B applied alone in a corresponding dose (%),"Eclipta prostrata, B 7.5 g a.i./ha",41.1%
same,Control effect of B applied alone in a corresponding dose (%),"Eclipta prostrata, B 15 g a.i./ha",68.2%
COC(=O)c1csc(C)c1S(=O)(=O)NC(=O)n1nc(OC)n(C)c1=O [Thiencarbazone-methyl],Control effect of B applied alone in a corresponding dose (%),"Commelina communis, B 15 g a.i./ha",45.4%
same,Control effect of B applied alone in a corresponding dose (%),"Commelina communis, B 30 g a.i./ha",56.0%
CN1C[C@H](c2cccc(C(F)(F)F)c2)[C@@H](C(=O)Nc2ccccc2F)C1=O [Tetflupyrolimet],Control effect of B applied alone in a corresponding dose (%),"Monochoria vaginalis, B 7.5 g a.i./ha",43.9%
same,Control effect of B applied alone in a corresponding dose (%),"Monochoria vaginalis, B 15 g a.i./ha",68.1%
CC(C)(C)c1nn(-c2cc(OCC#N)c(Cl)cc2Cl)c(=O)o1 [Oxadiargyl],Control effect of B applied alone in a corresponding dose (%),"Solanum nigrum, B 45 g a.i./ha",51.2%
same,Control effect of B applied alone in a corresponding dose (%),"Solanum nigrum, B 90 g a.i./ha",64.7%
Cn1nc(C(F)(F)F)c(CS(=O)(=O)C2=NOC(C)(C)C2)c1OC(F)F [Pyroxasulfone],Control effect of B applied alone in a corresponding dose (%),"Lolium multiflorum, B 30 g a.i./ha",40.6%
same,Control effect of B applied alone in a corresponding dose (%),"Lolium multiflorum, B 60 g a.i./ha",62.7%
CSc1nnc(C(C)(C)C)c(=O)n1N [Metribuzin],Control effect of B applied alone in a corresponding dose (%),"Eleocharis yokoscensis, B 150 g a.i./ha",40.6%
same,Control effect of B applied alone in a corresponding dose (%),"Eleocharis yokoscensis, B 300 g a.i./ha",58.3%
CS(=O)(=O)c1ccc(C(=O)C2=C(Sc3ccccc3)C3CCC(C3)C2=O)c(Cl)c1 (stereo not drawn) [Benzobicyclon],Control effect of B applied alone in a corresponding dose (%),"Eclipta prostrata, B 22.5 g a.i./ha",49.2%
same,Control effect of B applied alone in a corresponding dose (%),"Eclipta prostrata, B 45 g a.i./ha",74.0%
CC(C)Oc1cc(-n2nc(C(C)(C)C)oc2=O)c(Cl)cc1Cl [Oxadiazon],Control effect of B applied alone in a corresponding dose (%),"Solanum nigrum, B 30 g a.i./ha",45.8%
same,Control effect of B applied alone in a corresponding dose (%),"Solanum nigrum, B 60 g a.i./ha",53.5%
